This is an account of results in ChEMBL document CHEMBL1201862, “PubChem BioAssay data set” (2004).

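48-hour exposure; five concentrations; linearly interpolated endpoints. At the GI50, growth is halved.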 Calls of active or inactive are those of the source. Rule as the data show it: active = GI50 up to about 1.1 µM and inactive = higher. Some results are limits rather than exact numbers.

Assay in all cases: DTP human tumour cell line panel, 48 h
Test [1] deals with HT-29.
Test [2] relates to SF-268.
Test [3] deals with NCI/ADR-RES.
Test [4] has as its system UACC-62.
For test [5], the system named is U-251.
Test [6] concerns OVCAR-4.
Test [7] concerns K562.
The subject of test [8] is UO-31.
For test [9], the system named is M14.
For test [10], the system named is 786-0.
The subject of test [11] is PC-3.
For test [12], the system named is EKVX.
Test [13] concerns ACHN.
Test [14] deals with SR.
The test system of test [15] is SK-OV-3.
The test system of test [16] is OVCAR-8.
The test system of test [17] is CCRF-CEM.
In test [18] the test system is HL-60.
In test [19] the test system is COLO 205.

`CCOc1ccccc1Nc1ccc(N)cc1S(=O)(=O)O`: the GI50 in test [1], in test [2], in test [3], in test [4], in [5] and in test [6] was > 100 µM (inactive) each time. In addition, the GI50 in test [7], in [8], in test [9], in test [10], in test [11] and in test [12] was > 100 µM (inactive) throughout. The GI50 in [13] and in test [14] was > 100 µM (inactive) each time.

On to `CCC(=O)Nc1ncnc2ncn(C(=O)CC)c12`, for which the GI50 in [1], in [2], in [15], in test [3], in [4] and in [5] was > 100 µM (inactive) throughout. The GI50 in [6], in test [7], in [8], in [9], in [10] and in [11] was > 100 µM (inactive) throughout. In addition, the GI50 in [12], in [13], in test [14] and in test [16] was > 100 µM (inactive) throughout.

As to `COCCCN(Cc1cc(OC)c(OC)c(OC)c1)C(=S)Nc1cccc(Cl)c1`, the GI50 (usually the concentration giving 50% growth inhibition) in test [1] was 18.7 µM (inactive); in [2], 19.9 µM (inactive); in [17] it was 25.3 µM (inactive); in test [15], 41 µM (inactive); in [3], 21.1 µM (inactive); in [4], 15.4 µM (inactive). In addition, the GI50 in test [5] was 31.8 µM (inactive); in [6], 24.4 µM (inactive); in test [7], 15.7 µM (inactive); in [8], 26.1 µM (inactive); in [18] it was 17.7 µM (inactive); in [19], 33.8 µM (inactive). Moreover, the GI50 in test [9] is 23.7 µM (inactive); in test [10], 26.5 µM (inactive); in [11], 25.1 µM (inactive); in test [12], 12.3 µM (inactive); in [13], 28.6 µM (inactive); in test [16] it was 25 µM (inactive).

On to `COc1cc(C2c3cc4c(cc3OC(NN=C(C)C)C2C)OCO4)cc(OC)c1O` (centres undefined), for which the GI50 was 36 µM (inactive) in test [1]; 31.5 µM (inactive) in test [2]; 18 µM (inactive) in [3]; 19.2 µM (inactive) in test [4]; 29.2 µM (inactive) in [5]; 48.3 µM (inactive) in test [6]. Also, the GI50 in test [8] was 46.9 µM (inactive); in test [19], 30.9 µM (inactive); in test [9] it was 22.6 µM (inactive); in test [10], 28.1 µM (inactive); in test [11], 20.8 µM (inactive); in test [14], 1.44 µM (inactive). In addition, the GI50 in test [16] was 27.5 µM (inactive).

With `O=C1Nc2ccccc2/C1=N/NC(=S)N1CCCCCC1`, the GI50 in test [1] was 1.3 µM (inactive); in test [2], 0.322 µM (active); in test [15] it was 1.65 µM (inactive); in test [3], 0.0769 µM (active); in test [4], 0.489 µM (active); in test [5], 1.11 µM (active). The GI50 in test [6] was 1.38 µM (inactive); in test [8] it was 0.35 µM (active); in [19], 1.03 µM (active); in test [9], 0.684 µM (active); in [10], 0.332 µM (active); in test [11] it was 0.453 µM (active). The 50% growth inhibitory concentration (GI50) in test [12] is 0.851 µM (active); in test [13], 0.824 µM (active); in [14], 0.212 µM (active); in [16], 0.895 µM (active).

As for `O=C1c2ccccc2NC2C(O)c3ccccc3N12` (centres undefined), the GI50 in test [1] was 60 µM (inactive); in [2], > 100 µM (inactive); in test [17] it was 29.4 µM (inactive); in test [15], > 100 µM (inactive); in [3] it was 40.4 µM (inactive); in test [4] it was 23.6 µM (inactive). Moreover, the GI50 in [5] is 30 µM (inactive); in [6] it was 25.5 µM (inactive); in [7] it was 13.9 µM (inactive); in test [8], 40.8 µM (inactive); in [19], 41.1 µM (inactive); in test [9] it was 81.3 µM (inactive). For the same compound, the GI50 was > 100 µM (inactive) in test [10]; 35.4 µM (inactive) in [11]; 35.4 µM (inactive) in [12]; 40.8 µM (inactive) in [13]; 38.4 µM (inactive) in test [14]; 49.1 µM (inactive) in test [16].

On to `c1ccc(C(C2=Nc3cccc4cccc(c34)N2)c2ccccc2)cc1`, for which the GI50 in test [1] is 23.2 µM (inactive); in [2], 24.4 µM (inactive); in test [17], 39.2 µM (inactive); in test [15], 21.5 µM (inactive); in [3], 21.2 µM (inactive); in [4] it was 17.5 µM (inactive). The GI50 was 18 µM (inactive) in test [5]; 53.5 µM (inactive) in test [6]; 19 µM (inactive) in [7]; 17.8 µM (inactive) in [8]; 31.7 µM (inactive) in test [18]; 18.9 µM (inactive) in test [19]. Besides, the GI50 in [9] is 18.1 µM (inactive); in [10], 26.2 µM (inactive); in test [11], 23 µM (inactive); in [12], 30.3 µM (inactive); in test [13], 19.3 µM (inactive); in [16] it was 30.7 µM (inactive).

On to `Cc1cccc(C)c1NC(=O)C(=O)CC(=O)c1sc(Nc2c(C)cccc2C)nc1C`, for which the GI50 in [1], in test [2], in test [17], in [15], in [3] and in test [4] was > 100 µM (inactive) throughout. Moreover, the GI50 in test [5] is > 100 µM (inactive); in [6], > 100 µM (inactive); in test [7], > 100 µM (inactive); in test [8], 50.8 µM (inactive); in test [18], 25.5 µM (inactive); in [19], > 100 µM (inactive). Further, the GI50 in [9], in [10], in test [11], in test [12], in test [13] and in [16] was > 100 µM (inactive) throughout.

Regarding `CCCCCCCCP(=O)(O)OP(=O)(O)OCC1OC(n2ccc(N)nc2=O)C(O)C1O` (centres undefined), the GI50 in [1], in test [2], in [17], in test [15], in test [3] and in test [4] was > 100 µM (inactive) in each case. Also, the GI50 in test [5], in test [6], in [7], in test [8], in test [18] and in test [19] was > 100 µM (inactive) throughout. The GI50 in [9], in test [10], in [11], in [12], in test [13] and in test [16] was > 100 µM (inactive) throughout.
